Columns and labels:
T cell proliferation = settings: Singer et al.; cited from earlier work
NIH3T3 cell line (D5C3) = test: Blocking transformed phenotype of D5C3 cells (temperature-sensitive v-abl); type: cell-based, murine; set-up: key to Phenotype: 1+ represents a typical fibroblastic appearance of nontransformed NIH3T3 cells; visually graded on a scale of + (1+) to +++++ (5+); visually graded on a scale of + (1+) to +++++ (5+); +++++: 5+ represents a fully transformed phenotype; key to Growth: the nontransformed cells were scored as 1+ (for slower growth); graded from + (1+) to +++++ (5+); graded from + (1+) to +++++ (5+); +++++: the transformed cells were scored as 5+ (for rapid growth); settings: for Growth / Phenotype: ciprofloxacin 50 µg/ml; for Phenotype: visually graded
Method: In an additional assay method of the invention, the effect of coadministering a xanthine compound with a candidate inhibitor for P450 can be assessed using transformed NIH3T3-[…] cells and comparing the effect on transformation phenotype among control, incubation with the xanthine derivative alone, and coincubation of the xanthine derivative with the P450 enzyme inhibitor. An NIH3T3 cell line ([…]) provides target cells which were transformed by an activated oncogene. The cells were transformed with a temperature-sensitive v-abl mutant gene. This mutant gene encodes a temperature-sensitive v-abl protein that produces a non-oncogenic product at a non-permissive temperature due to a lack of tyrosine phosphorylation. The cells were incubated at the permissive temperature (33°C) for 5 days after passage with and without pentoxifylline (1 mM).

[1] = tested on: Human glomerular mesangial cells; test: Invention assay: HPLC of lipids (PA, DAG) extracted from IL-1-stimulated mesangial cells; type: cell-based
Method: The compounds of Formula I are shown to modulate the effects of primary stimuli which elevate levels of the relevant subspecies of PA and DAG using the assay system of the invention. In general for the assay, the cells to be tested are first incubated with the primary stimulating agent for various time periods and fixed in ice-cold methanol. The lipids are extracted using, for example, chloroform:methanol 2:1 (v/v), and the extracts are then subjected to HPLC as described by Bursten and Harris, Biochemistry (1991) . In this method, a Rainin mu-Porasil column is used with a 3:4 hexane:propanol organic carrier and a 1-10% water gradient during the first 10 minutes of separation. Detection of the peaks in the elution pattern is by absorption in the range of ultraviolet which detects isolated double bonds. Thus, the relevant peaks of unsaturated PA and DAG are shown in the elution pattern. It is important to note that the assay method permits discrimination between various forms of PA and DAG so that those relevant to the pathway affected by the compounds of Formula I can be measured directly. Confirmation of the nature of the acyl substituents of these components is accomplished using fast-atom bombardment mass spectroscopy. Thus, the relevant unsaturated (non-arachidonic) PA and DAG subspecies may be detected. The time periods employed are 5-60 seconds after stimulation with the primary stimulus, such as a cytokine. This technique permits assessment of the levels of various lipid components as a function of time. […]
The extracts were subjected to HPLC on a Rainin mu-Porasil column with a 3:4 hexane:propanol organic carrier and a 1-10% water gradient during the first 10 minutes of separation. The relative concentration of each lipid species is determined using absorption at 206 nm (A206), which follows unsaturated acyl content of lipid species. […] The absolute mass of each lipid species is determined by isolation of the lipid using a fraction collector, repurification on the HPLC column. […] Protein concentration is determined using the Bradford technique. […]

[2] = tested on: lyso-PA acyl transferase (LPAAT); test: Invention assay (lipid HPLC after IL-1), indirect enzyme inhibition; type: cell-based, Human; settings: IL-1-stimulated HMC
Method: (§1) As shown hereinbelow, a simple assay involving incubation of target cells with primary stimulus in the presence or absence of the xanthine derivative followed by extraction and analysis of lipid content is diagnostic of the levels of various members of the foregoing pathway as characterized by their fatty acyl content. This assay indirectly measures the effect of the xanthine derivative on the relevant enzymes lysophosphatidic acid acyltransferase (LPAAT) and phosphatidic acid phosphoryl hydrolase (PAPH). In general, inhibition of these enzymes is effected by the xanthine derivative, thus resulting in lowering of the levels of the relevant species of the particular acylated subspecies of PA and DAG intermediates.
(§2) This example also illustrates the method of the invention.
(§3) Human glomerular mesangial cells were incubated with IL-1 for various time periods of 5-60 seconds and the cells were fixed in ice-cold methanol, and the lipids extracted using chloroform:methanol 2:1 (v/v). It is very important that the fixing/extraction process be conducted quickly so that the decomposition of unstable intermediates is halted.
(§4) The extracts were subjected to HPLC on a Rainin mu-Porasil column with a 3:4 hexane:propanol organic carrier and a 1-10% water gradient during the first 10 minutes of separation. The relative concentration of each lipid species is determined using absorption at 206 nm (A206), which follows unsaturated acyl content of lipid species. […] The absolute mass of each lipid species is determined by isolation of the lipid using a fraction collector, repurification on the HPLC column. Determination of phospholipid phosphorus is as nmoles/mg cellular protein. Protein concentration is determined using the Bradford technique.
(§5) Thus, the lyso PA that accumulates contains high levels of unsaturated fatty acids. Pentoxifylline in a dose range greater than 500 µM results in inhibition both of phosphatidate phosphohydrolase and of lyso PA acyl transferase.

[3] = tested on: phosphatidic acid phosphohydrolase (PAPH); test: as above; type: cell-based, Human
Method: as §1, §2, §3, §4, §5

[4] = tested on: NIH3T3 murine fibroblast cells transformed with a mutated K-ras; test: Growth and anchorage-independent growth in soft agar of K-ras-transformed cells in vitro; type: cell-based; settings: Mus musculus, NIH3T3, read-out: concentrations resulting in inhibition of growth and suppression of anchorage-independent growth
Method: Additionally, NIH3T3 murine fibroblast cells transformed with a mutated K-ras (codon 12 Gly-Val) were tested in vitro and in nude mice.

[5] = tested on: NIH3T3 murine fibroblast cells transformed with a mutated K-ras; test: Subcutaneous tumors of K-ras-transformed NIH3T3 cells in nude mice; type: in vivo; settings: after eight days, 10^6 cells subcutaneously
Method: Nude mice were injected subcutaneously with 10^6 cells and were treated either once or twice daily with 100 mg/kg pentoxifylline intraperitoneally. Control animals treated with only saline injections developed tumors that weighed 2.5 ±0.2 g after eight days. Animals treated once daily with pentoxifylline had tumors that weighed only 0.45 ±0.2 g while animals treated twice daily had tumors that weighed 0.2 ±0.1 g.

[6] = tested on: SV40 T-antigen-transformed human kidney mesangial cells; test: Growth of transformed mesangial cells by tritiated thymidine uptake; type: cell-based
Method: SV40 T-antigen-transformed human kidney mesangial cells were cultured under standard conditions with rhIL-1 or with TNFα with and without pentoxifylline (PTX). Transformed mesangial cells grow independently of added growth factors, but IL-1 and TNFα are the normal proliferative signals for mesangial cells. As was shown in Example 1, when IL-1 is added to kidney mesangial cells, within 30 seconds LPAAT and PAPH are activated; the effect of both of these enzymes is inhibited by pentoxifylline at 1 mM. In this experiment, the growth of the treated cells was measured using tritiated thymidine uptake.

[7] = tested on: human leukemic cell line (Mo7e); test: GM-CSF-stimulated colony formation in semisolid medium; type: cell-based; settings: colonies counted 10 days after culture initiation; Figure 14
Method: The human leukemic cell line (Mo7e) is dependent on added granulocyte-macrophage colony-stimulating factor (GM-CSF) for growth. Mo7e cells were cultured in semisolid medium with and without pentoxifylline (PTX) and rhGM-CSF. Colonies were counted 10 days after culture initiation under an inverted microscope. […] PTX thus prevents the up-regulation of activation-associated genes which inhibit proliferation.

[8] = tested on: TNFα transcripts in U937 cells; test: Northern blot of TNF transcripts after LPS induction; type: cell-based; settings: 1 mM PTX; LPS for three hours
[9] = tested on: IL-6 transcripts in bone marrow stromal cells; test: Northern blot of IL-6 transcripts; type: cell-based; settings: three-hour exposure, increasing concentrations
[10] = tested on: Steel factor transcripts in marrow stromal cell lines; test: Northern blot of Steel factor transcripts; type: cell-based; settings: three-hour incubation; passaged (native) or cloned (CDCL) lines
CD3-positive lymphocytes = test: Proliferation (thymidine uptake) of CD2-positive cells stimulated by anti-CD3 monoclonal antibody; type: cell-based
Method: In these experiments, freshly isolated, CD2-positive cells were stimulated by a solid-phase monoclonal antibody to acquire a CD3 phenotype, and then PTX was added. […] The block in proliferation could not be overcome by addition of either tumor necrosis factor (Figures 20 and 21) or IL-1 (Figure 21). […] The cytokines and PTX were added at culture inception and the cells were harvested after 5 days.

[11] = tested on: TNF transcripts in CD3 positive lymphocytes; test: Northern blot, mixed lymphocyte reaction; type: cell-based; settings: Figure 19A
[12] = tested on: IL-2 receptor transcripts in CD3 positive lymphocytes; test: Northern blot, mixed lymphocyte reaction; type: cell-based; settings: Figure 19C
[13] = tested on: IL-2 transcripts in CD3 positive lymphocytes; test: Northern blot, mixed lymphocyte reaction; type: cell-based; settings: Figure 19B
[14] = tested on: IL-8 encoding mRNA in U937 and THP1; test: Northern blot of IL-8 mRNA after lipopolysaccharide or GM-CSF induction; type: cell-based
Method: The murine fibrosarcoma cell line, L929, was also tested as an indicator for assays of TNF cytotoxicity. Cell growth was assayed by crystal violet staining using optical density as a measure of growth. […] Finally, two monocytic cell lines, U937 and THP1, were used to test the effect of pentoxifylline on the […] of the cytokine IL-8. The cell lines in culture were induced to upregulate IL-8 production by lipopolysaccharide or GM-CSF.

[15] = tested on: HLA-DR, the transferrin receptor (CD71), the IL-2 receptor (CD25), and CD69; settings: MLR-stimulated lymphocytes; Singer et al.; cited from earlier work
[16] = 33°C, 5 days, pentoxifylline 1 mM

## CC(O)CCCCn1c(=O)c2c(ncn2C)n(C)c1=O (stereo not drawn) [M1, 1-(5-hydroxyhexyl) -3,7-dimethylxanthine]
T cell proliferation
  suppression of T cell proliferation: active

## Cn1cnc2c1c(=O)n(CCCCC(=O)O)c(=O)n2C [M4, 1-(4-carboxybutyl)-3,7-dimethylxanthine]
T cell proliferation
  suppression of T cell proliferation: minimal or no suppression

## CC(O)C(O)CCCn1c(=O)c2c(ncn2C)n(C)c1=O (stereo not drawn) [M3, 1-(4,5-dihydroxyhexyl) -3,7-dimethylxanthine]
T cell proliferation
  suppression of T cell proliferation: minimal or no suppression

## CCOCn1cnc2c1c(=O)n(CCCCC(C)(C)O)c(=O)n2C [HWA448]
T cell proliferation
  suppression of T cell proliferation: active

## Cn1cnc2c1c(=O)n(CCCC(=O)O)c(=O)n2C [M5, 1-(3-carboxypropyl)-3,7-dimethylxanthine]
T cell proliferation
  suppression of T cell proliferation: minimal or no suppression

## O=C(O)c1cn(C2CC2)c2cc(N3CCNCC3)c(F)cc2c1=O [Ciprofloxacin]
NIH3T3 cell line (D5C3); [16]
  Growth: ++
  Phenotype: ++
NIH3T3 cell line (D5C3); pentoxifylline 1 mM, Ciprofloxacin 50 µg/ml
  inhibition of the transformed phenotype: significant effect

## Cn1c(=O)n(CCCCC(C)(C)O)c(=O)c2[nH]cnc21 [HWA138]
T cell proliferation
  suppression of T cell proliferation: minimal or no suppression

## CC(=O)CCCCn1c(=O)c2c(ncn2C)n(C)c1=O [Pentoxifylline]
[1]; 100 µM pentoxifylline, 10^-11 M IL-1, 15- and 60-second points
  cyclical formation of PA, and conversion of PA to DAG: no change
[1]; 500 µM pentoxifylline, 10^-11 M IL-1, 15 second time point
  conversion of PA to DAG: slight attenuation
[1]; 1 mM, all time points examined (15-60 seconds)
  elevation of PA and DAG by IL-1: abolishes
[2]
  dose range resulting in inhibition of lyso PA acyl transferase: greater than 500 µM
[3]; 0.5 mM
  inhibition of PAPH: inhibits
[3]; IL-1-stimulated HMC
  dose range resulting in inhibition of phosphatidate phosphohydrolase: greater than 500 µM
NIH3T3 cell line (D5C3); 1 mM, 33°C, 5 days
  appearance of cells: predominantly non-transformed, fibroblastic appearance
NIH3T3 cell line (D5C3); [16]
  Growth: +++
  Phenotype: +++
NIH3T3 cell line (D5C3); Mus musculus, NIH3T3, 120 h, 1 mM, 33°C, 5 days, read-out: overall number of cells diminished
  inhibition at 1000 µM: ~50%
[4]
  minimal effective concentration: ≥ 500 µM
[5]; 100 mg/kg intraperitoneally once daily
  tumor weight: 0.45 ± 0.2 g
[5]; 100 mg/kg intraperitoneally twice daily
  tumor weight: 0.2 ± 0.1 g
[6]; TNFα, Figure 13B
  proliferative effect of TNF: enhances
[6]; rhIL-1, Figure 13A
  growth stimulated by IL-1: arrested growth
[7]
  GM-CSF-stimulated growth of colonies: enhanced
[8]
  TNF RNA obtained in response to LPS stimulation: undetectable level
[9]
  production of IL-6 transcripts: increased
[10]
  levels of Steel factor transcripts: increases
CD3-positive lymphocytes; CD2-positive cells stimulated by solid-phase monoclonal antibody
  Proliferation of CD3-positive lymphocytes: strikingly inhibited
CD3-positive lymphocytes; antibody 64.1, harvested after 5 days, not reversed by IL-1 or TNF
  thymidine uptake: diminished
[11]
  TNF transcripts: suppression
[12]
  IL-2 receptor transcripts: suppression
[13]
  IL-2 transcripts: but not of IL-2 transcripts
[14]
  synthesis of IL-8: did not inhibit
T cell proliferation
  proliferation of lymphocytes induced by anti-CD3: suppressed
[15]
  expression of cell surface antigens on lymphocytes: decreased
